From US7981927B2, “Steroids derivatives as selective progesterone receptor modulators” (Janssen Pharmaceutica N.V., priority 2007, dated 2011)

Tested on: T47D human breast cancer cells
Assay: T47D human breast cancer cells alkaline phosphatase assay
Assay type: cell-based
Details: 24 h with test compound, alkaline phosphatase luminescence readout
Method: T47D human breast cancer cells were grown in RPMI medium without phenol red (Invitrogen) containing 10% (v/v) heat-inactivated fetal bovine serum (FBS; Hyclone), 1% (v/v) penicillin-streptomycin (Invitrogen), 1% (w/v) glutamine (Invitrogen), and […] insulin (Sigma). Incubation conditions were 37° C. in a humidified 5% (v/v) carbon dioxide environment.
The cells were plated in 96-well tissue culture plates at 10,000 cells per well in assay medium [RPMI medium without phenol red (Invitrogen) containing 5% (v/v) charcoal-treated FBS (Hyclone) and 1% (v/v) penicillin-streptomycin (Invitrogen)]. Two days later, the medium was decanted and test compound or control were added at a final concentration of 0.1% (v/v) dimethyl sulfoxide in fresh assay medium. Twenty-four hours later, an alkaline phosphatase assay was performed using a SEAP kit (BD Biosciences Clontech, Palo Alto, Calif.). Briefly, the medium was decanted and the cells were fixed for 30 minutes at room temperature with 5% (v/v) formalin (Sigma). The cells were washed once with room temperature Hank's buffered saline solution (Invitrogen). […] After 1 hour incubation at room temperature in the dark, the lysate was transferred to a white 96-well plate (Dynex) and luminescence was read using a LuminoSkan Ascent (Thermo Electron, Woburn, Mass.). […]

IC50 [nM] | Structure (SMILES)
33 | CC#C[C@]1(O)OCC[C@H]2[C@@H]3CCC4=CC(=O)CCC4=C3[C@@H](c3ccc(N(C)C)cc3)C[C@@]21C (stereo in doubt) [compound 2, 11-(4-Dimethylamino-phenyl)-1-hydroxy-12a-methyl-1-prop-1-ynyl-1,3,4,4a,4b,5,6,9,10,11,12,12a-dodecahydro-2-oxa-chrysen-8-one]
750 | CN(C)c1ccc([C@@H]2C[C@]3(C)C(=O)OCC[C@H]3[C@@H]3CCC4=CC(=O)CCC4=C23)cc1 (stereo in doubt) [compound 1, 11-(4-Dimethylamino-phenyl)-12a-methyl-3,4,4a,5,6,9,10,11,12,12a-decahydro-4bH-2-oxa-chrysene-1,8-dione]
